Measurements taken from PubChem BioAssay AID1963866 (Molecular Pharmacology Branch, DTP, NCI, 2024).

System: PDC KRAS tumor spheroids with HUVEC/MSC, viability
Experiment: Anticancer human tumor 349418-098-R-PDC patient-derived lung adenocarcinoma cell line growth inhibition [KRAS2]
Conditions: for viability, T/C: stronger effect = lower value
In short: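 Combination screen of spheroid viability in tumor-cell co-cultures with endothelial (HUVEC) and mesenchymal stem cell stroma. Each agent was tested in half-log dilutions, topping at clinical Cmax or at 10 microM without a known Cmax.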

[1] = curve of first compound, second compound 0.0316 µM
[2] = curve of first compound, second compound 0.1 µM
[3] = curve of first compound, second compound 0.316 µM
[4] = curve of first compound, second compound 1 µM
[5] = curve of first compound, second compound 3.16 µM
[6] = second compound 0.0316 µM, first compound 0.0316 µM
[7] = second compound 0.0316 µM, first compound 0.1 µM
[8] = second compound 0.0316 µM, first compound 0.316 µM
[9] = second compound 0.0316 µM, first compound 1 µM
[10] = second compound 0.0316 µM, first compound 3.16 µM
[11] = second compound 0.1 µM, first compound 0.0316 µM
[12] = second compound 0.1 µM, first compound 0.1 µM
[13] = second compound 0.1 µM, first compound 0.316 µM
[14] = second compound 0.1 µM, first compound 1 µM
[15] = second compound 0.1 µM, first compound 3.16 µM
[16] = second compound 0.316 µM, first compound 0.0316 µM
[17] = second compound 0.316 µM, first compound 0.1 µM
[18] = second compound 0.316 µM, first compound 0.316 µM
[19] = second compound 0.316 µM, first compound 1 µM
[20] = second compound 0.316 µM, first compound 3.16 µM
[21] = second compound 1 µM, first compound 0.0316 µM
[22] = second compound 1 µM, first compound 0.1 µM
[23] = second compound 1 µM, first compound 0.316 µM
[24] = second compound 1 µM, first compound 1 µM
[25] = second compound 1 µM, first compound 3.16 µM
[26] = second compound 3.16 µM, first compound 0.0316 µM
[27] = second compound 3.16 µM, first compound 0.1 µM
[28] = second compound 3.16 µM, first compound 0.316 µM
[29] = second compound 3.16 µM, first compound 1 µM
[30] = second compound 3.16 µM, first compound 3.16 µM
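Note: spheroids exposed to compounds for seven days before readout.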

Question: Which results are given for `O=C(c1cc(Cc2n[nH]c(=O)c3ccccc23)ccc1F)N1CCN(C(=O)C2CC2)CC1` + C=CC(=O)N1CCN(c2nc(OCC3CCCN3C)nc3c2CCN(c2cccc4cccc(C)c24)C3)CC1CC#N?
Answer: IC50 [1]: 0.189 µM; IC50 [2]: 0.168 µM; IC50 [3]: 1.19 µM; IC50 [4]: 0.353 µM; IC50 [5]: < 0.0316 µM; viability, T/C [6]: 86.9%; viability, T/C [7]: 75.7%; viability, T/C [8]: 29.1%; viability, T/C [9]: 21.3%; viability, T/C [10]: 17.5%; viability, T/C (second compound 0.0316 µM, first compound 10 µM): 15.6%; viability, T/C [11]: 81.2%; viability, T/C [12]: 50.7%; viability, T/C [13]: 50.7%; viability, T/C [14]: 24.5%; viability, T/C [15]: 20.9%; viability, T/C (second compound 0.1 µM, first compound 10 µM): 17.5%; viability, T/C [16]: 91.6%; viability, T/C [17]: 88%; viability, T/C [18]: 68.2%; viability, T/C [19]: 62.1%; viability, T/C [20]: 23.1%; viability, T/C (second compound 0.316 µM, first compound 10 µM): 18.9%; viability, T/C [21]: 51.9%; viability, T/C [22]: 55.5%; viability, T/C [23]: 52.5%; viability, T/C [24]: 34.6%; viability, T/C [25]: 26.7%; viability, T/C (second compound 1 µM, first compound 10 µM): 20.6%; viability, T/C [26]: 0.11%; viability, T/C [27]: 0.12%; viability, T/C [28]: 0.11%; viability, T/C [29]: 0.11%; viability, T/C [30]: 0.12%; viability, T/C (second compound 3.16 µM, first compound 10 µM): 1.16%

Question: Which viability, T/C (compound 0.01 µM) does the source give for `CC(=O)OC12COC1CC(O)C1(C)C(=O)C(O)C3=C(C)C(OC(=O)C(O)C(NC(=O)OC(C)(C)C)c4ccccc4)CC(O)(C(OC(=O)c4ccccc4)C21)C3(C)C` (stereo unspecified) here?
Answer: 15% [middle of 5 runs]

Question: What about the viability, T/C (compound 0.0316 µM) of the same compound?
Answer: 17.7% [middle of 5 runs]

Question: And the viability, T/C (compound 0.1 µM)?
Answer: 19.3% [middle of 5 runs]

Question: What about the viability, T/C (compound 0.316 µM) of the same compound?
Answer: 22.6% [middle of 5 runs]

Question: What about the viability, T/C (compound 1 µM) of the same compound?
Answer: 32.3% [middle of 4 runs]

Question: What about the viability, T/C (compound 3.16 µM) of the same compound?
Answer: 25.7% [middle of 5 runs]

Question: And the IC50 (curve of compound)?
Answer: < 0.01 µM

Question: `CN(C)C/C=C/C(=O)Nc1cc2c(Nc3ccc(F)c(Cl)c3)ncnc2cc1O[C@H]1CCOC1` was tested. Which viability, T/C (compound 0.001 µM) did it give?
Answer: 94.4% [middle of 5 runs]

Question: And the viability, T/C (compound 0.0316 µM)?
Answer: 99% [middle of 5 runs]

Question: What about the viability, T/C (compound 0.1 µM) of the same compound?
Answer: 97.2% [middle of 5 runs]

Question: What about the IC50 (curve of compound) of the same compound?
Answer: > 0.1 µM

Question: How did the IC50 [1] turn out when `CC(=O)OC12COC1CC(O)C1(C)C(=O)C(O)C3=C(C)C(OC(=O)C(O)C(NC(=O)OC(C)(C)C)c4ccccc4)CC(O)(C(OC(=O)c4ccccc4)C21)C3(C)C` (stereo unspecified) + C=CC(=O)N1CCN(c2nc(OCC3CCCN3C)nc3c2CCN(c2cccc4cccc(C)c24)C3)CC1CC#N was run?
Answer: < 0.01 µM

Question: And the IC50 [2]?
Answer: < 0.01 µM

Question: And the IC50 [3]?
Answer: < 0.01 µM

Question: What about the IC50 [4] of the same compound?
Answer: < 0.01 µM

Question: What about the IC50 [5] of the same compound?
Answer: < 0.01 µM

Question: And the viability, T/C (second compound 0.0316 µM, first compound 0.01 µM)?
Answer: 12%

Question: What about the viability, T/C [6] of the same compound?
Answer: 20%

Question: And the viability, T/C [7]?
Answer: 16.5%

Question: And the viability, T/C [8]?
Answer: 17.8%

Question: What about the viability, T/C [9] of the same compound?
Answer: 24.9%

Question: What about the viability, T/C [10] of the same compound?
Answer: 23.5%

Question: And the viability, T/C (second compound 0.1 µM, first compound 0.01 µM)?
Answer: 13.5%

Question: And the viability, T/C [11]?
Answer: 12%

Question: What about the viability, T/C [12] of the same compound?
Answer: 15.2%

Question: And the viability, T/C [13]?
Answer: 17.2%

Question: What about the viability, T/C [14] of the same compound?
Answer: 21.1%

Question: What about the viability, T/C [15] of the same compound?
Answer: 18%

Question: What about the viability, T/C (second compound 0.316 µM, first compound 0.01 µM) of the same compound?
Answer: 10.8%

Question: And the viability, T/C [16]?
Answer: 14.2%

Question: And the viability, T/C [17]?
Answer: 12.8%

Question: And the viability, T/C [18]?
Answer: 14.6%

Question: What about the viability, T/C [19] of the same compound?
Answer: 18.3%

Question: What about the viability, T/C [20] of the same compound?
Answer: 18%

Question: What about the viability, T/C (second compound 1 µM, first compound 0.01 µM) of the same compound?
Answer: 9.34%

Question: And the viability, T/C [21]?
Answer: 12.5%

Question: What about the viability, T/C [22] of the same compound?
Answer: 12.2%

Question: And the viability, T/C [23]?
Answer: 11.6%

Question: And the viability, T/C [24]?
Answer: 14.8%

Question: What about the viability, T/C [25] of the same compound?
Answer: 17.5%

Question: What about the viability, T/C (second compound 3.16 µM, first compound 0.01 µM) of the same compound?
Answer: 12.8%

Question: And the viability, T/C [26]?
Answer: 14.4%

Question: What about the viability, T/C [27] of the same compound?
Answer: 19.9%

Question: What about the viability, T/C [28] of the same compound?
Answer: 20%

Question: What about the viability, T/C [29] of the same compound?
Answer: 19.5%

Question: And the viability, T/C [30]?
Answer: 24.3%
